The source of these data is PMC11576109, “Synthesis and biological evaluation of diclofenac acid derivatives as potential lipoxygenase and α-glucosidase inhibitors” (Royal Society Open Science, 2024).

One series has as its target T1, soybean 15-LOX (Glycine max, UniProt P08170).
T1 sequence (P08170 1-839): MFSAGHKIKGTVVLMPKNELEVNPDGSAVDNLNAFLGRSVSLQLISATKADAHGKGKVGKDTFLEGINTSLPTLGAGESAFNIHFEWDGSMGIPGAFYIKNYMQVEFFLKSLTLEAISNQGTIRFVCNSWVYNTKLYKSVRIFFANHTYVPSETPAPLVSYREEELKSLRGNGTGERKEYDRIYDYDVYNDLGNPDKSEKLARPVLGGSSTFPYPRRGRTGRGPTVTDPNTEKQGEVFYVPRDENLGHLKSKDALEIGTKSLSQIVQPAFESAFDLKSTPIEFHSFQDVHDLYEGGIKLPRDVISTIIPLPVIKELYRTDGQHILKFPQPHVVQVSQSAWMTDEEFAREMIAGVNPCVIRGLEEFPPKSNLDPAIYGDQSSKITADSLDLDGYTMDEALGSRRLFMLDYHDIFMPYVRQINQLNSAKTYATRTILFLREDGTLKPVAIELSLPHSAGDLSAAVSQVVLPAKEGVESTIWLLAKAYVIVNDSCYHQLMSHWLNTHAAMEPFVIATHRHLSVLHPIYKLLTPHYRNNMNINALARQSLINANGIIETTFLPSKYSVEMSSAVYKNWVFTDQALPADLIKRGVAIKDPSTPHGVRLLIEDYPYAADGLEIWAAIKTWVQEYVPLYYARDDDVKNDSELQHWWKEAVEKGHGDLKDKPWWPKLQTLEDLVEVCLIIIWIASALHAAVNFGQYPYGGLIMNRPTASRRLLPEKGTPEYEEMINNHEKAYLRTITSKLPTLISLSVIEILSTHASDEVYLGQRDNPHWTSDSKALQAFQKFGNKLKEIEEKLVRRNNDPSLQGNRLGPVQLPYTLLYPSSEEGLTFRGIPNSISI
The series can be described thus: In vitro 15-lipoxygenase inhibition assay. The note with it: read-out: IC50 (µM) ± SEM 15-LOX. Type of series: biochemical. From the text: (§1) Assay protocols for bioactivity were placed in electronic supplementary material.

A further series addresses α-glucosidase (Saccharomyces cerevisiae, UniProt P53341). The series can be described thus: In vitro α-glucosidase inhibition assay. The series is classed as biochemical. The note with it: NA = not active; for IC50: read-out: IC50 (µM) ± SEM α-glucosidase.
Description: as §1
Synthesized diclofenac acid derivatives were screened for α-glucosidase inhibitory activity (table 2).

Another series deals with mononuclear cells (MNCs). The series can be described thus: Cellular viability assay on mononuclear cells. Type of series: cell-based, human.
Description: (§2) All of the chemicals and solvents were obtained from Sigma-Aldrich and used directly without any purification. Mononuclear cells were isolated from the blood samples taken from healthy volunteers. Diclofenac acid was purchased from Alfa Aesar. Bruker Avance 400 and 500 MHz spectrometers were used to […] the ^1H and ^13C nuclear magnetic resonance (NMR) spectra, were captured with tetramethylsilane (TMS) serving as an internal reference. On a Finnegan MAT-311A mass spectrometer, high-resolution mass spectrometry using electron ionization (HRMS (EI)) data were recorded. Using the Stuart melting point apparatus, melting points in open capillaries were determined (SMP10). All reactions were monitored by using thin layer chromatography (TLC) plates that were pre-coated with silica gel 60F254.
as §1
(§3) Using mononuclear cells (MNCs) at a concentration of 0.25 mM as shown in the table 2, the per cent viability was calculated.

Series [1] is described as follows: Cellular viability assay on mononuclear cells. The series is classed as cell-based, human. The settings on record: human, mononuclear cells (MNCs) isolated from blood, read-out: cell viability (%) at 0.25 mM.
Description: as §2, §1, §3

Entries after “also recorded” stand apart in the source; their conditions may differ. A value given as a limit tells only on which side of the number the result lay.

α-glucosidase, sequence (P53341 whole entry): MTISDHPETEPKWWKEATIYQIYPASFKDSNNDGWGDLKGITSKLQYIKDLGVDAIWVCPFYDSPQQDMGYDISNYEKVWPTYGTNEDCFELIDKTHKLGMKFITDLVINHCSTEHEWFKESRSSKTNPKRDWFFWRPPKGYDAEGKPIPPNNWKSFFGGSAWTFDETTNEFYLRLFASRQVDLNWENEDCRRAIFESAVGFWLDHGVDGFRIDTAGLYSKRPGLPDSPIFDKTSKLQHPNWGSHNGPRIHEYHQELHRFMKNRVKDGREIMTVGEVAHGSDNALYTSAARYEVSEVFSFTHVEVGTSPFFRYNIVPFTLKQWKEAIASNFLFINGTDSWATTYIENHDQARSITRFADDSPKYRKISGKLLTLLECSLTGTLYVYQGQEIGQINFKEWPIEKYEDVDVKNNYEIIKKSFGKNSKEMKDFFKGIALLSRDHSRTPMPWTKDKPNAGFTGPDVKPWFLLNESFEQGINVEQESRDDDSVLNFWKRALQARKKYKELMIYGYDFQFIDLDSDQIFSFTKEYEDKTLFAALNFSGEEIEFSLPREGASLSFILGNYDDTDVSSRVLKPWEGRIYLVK

As usually defined, the IC50 is the concentration at which inhibition is half-maximal. As to `O=C(Cc1ccccc1Nc1c(Cl)cccc1Cl)NNC(=S)Nc1ccc(Cl)cc1Cl` [4e], the IC50 was determined as 177 ± 1 µM on soybean 15-LOX and 87 ± 1 µM on α-glucosidase. Besides, the “cell viability (%) at 0.25 mM” value with mononuclear cells (MNCs) turned out to be 64 ± 2%.

As for `O=C(Cc1ccccc1Nc1c(Cl)cccc1Cl)NNC(=S)Nc1ccc(F)cc1` [4c], the IC50 on soybean 15-LOX was above 250 µM; on α-glucosidase, 53 ± 1 µM. The “cell viability (%) at 0.25 mM” value in the series on mononuclear cells (MNCs) is given as 62 ± 2%.

`CCSc1nnc(Cc2ccccc2Nc2c(Cl)cccc2Cl)n1-c1ccc(Cl)c(Cl)c1` [6b]: the IC50 at soybean 15-LOX was above 250 µM; on α-glucosidase, 132 ± 1 µM. Further, in the series with mononuclear cells (MNCs), the “cell viability (%) at 0.25 mM” value is 98 ± 1%.

`O=C(Cc1ccccc1Nc1c(Cl)cccc1Cl)NNC(=S)Nc1ccc(Cl)c(Cl)c1` [4f]: the IC50 on soybean 15-LOX is above 250 µM; at α-glucosidase it was 93 ± 1 µM. For the same compound, the “cell viability (%) at 0.25 mM” value with mononuclear cells (MNCs) was 64 ± 2%.

Regarding `Clc1ccc(Nc2nnc(Cc3ccccc3Nc3c(Cl)cccc3Cl)s2)cc1Cl` [8f], the IC50 stood at 156 ± 1 µM on soybean 15-LOX and 125 ± 1 µM at α-glucosidase. In addition, the “cell viability (%) at 0.25 mM” value in the series with mononuclear cells (MNCs) was 95 ± 2%.

The term viability denotes a per cent measure of how many cells are alive, often set against a control. Consider `O=c1c(O)c(-c2ccc(O)c(O)c2)oc2cc(O)cc(O)c12` [quercetin, reference compound], for which, in series [1], the viability at 0.25 mM was 92 ± 1%.

Take `O=P1(N(CCCl)CCCl)NCCCO1` (stereo not shown) [cyclophosphamide, reference compound]: the viability at 0.25 mM in series [1] was determined as 56 ± 2%.

Consider `Clc1cccc(Nc2nnc(Cc3ccccc3Nc3c(Cl)cccc3Cl)o2)c1Cl` [7d], for which the results for the IC50 at soybean 15-LOX and on α-glucosidase were 165 ± 1 µM and 79 ± 1 µM, respectively. Besides, the “cell viability (%) at 0.25 mM” value with mononuclear cells (MNCs) is recorded as 62 ± 2%.

For the compound `O=C(Cc1ccccc1Nc1c(Cl)cccc1Cl)NNC(=S)Nc1cccc(Cl)c1Cl` [4d], the figures for the half-maximal inhibitory concentration (IC50) at soybean 15-LOX and on α-glucosidase were 164 ± 1 µM and 28 ± 1 µM, respectively. In the series with mononuclear cells (MNCs), the “cell viability (%) at 0.25 mM” value is on record as 73 ± 1%.

Take `Clc1ccc(Nc2nnc(Cc3ccccc3Nc3c(Cl)cccc3Cl)o2)c(Cl)c1` [7e]: the results for the IC50 on soybean 15-LOX and at α-glucosidase were 172 ± 1 µM and 61 ± 1 µM, respectively. Besides, the “cell viability (%) at 0.25 mM” value in the series with mononuclear cells (MNCs) worked out at 43 ± 1%.

Take `COc1cc(/C=C/C(=O)CC(=O)/C=C/c2ccc(O)c(OC)c2)ccc1O` [curcumin, reference compound]: the viability at 0.25 mM in series [1] is 74 ± 2%.

On to `Fc1cccc(Nc2nnc(Cc3ccccc3Nc3c(Cl)cccc3Cl)s2)c1` [8b], for which the IC50 at soybean 15-LOX stood at 97 ± 1 µM; at α-glucosidase it was 11 ± 1 µM. The “cell viability (%) at 0.25 mM” value in the series with mononuclear cells (MNCs) was 92 ± 2%.

Turning to `Clc1ccc(Nc2nnc(Cc3ccccc3Nc3c(Cl)cccc3Cl)o2)cc1Cl` [7f], the IC50 was determined as 143 ± 1 µM at soybean 15-LOX and 91 ± 1 µM at α-glucosidase. Besides, the “cell viability (%) at 0.25 mM” value in the series with mononuclear cells (MNCs) was 59 ± 2%.

On to `Fc1ccc(Nc2nnc(Cc3ccccc3Nc3c(Cl)cccc3Cl)o2)cc1` [7c], for which the figures for the IC50 at soybean 15-LOX and at α-glucosidase were 67 ± 1 µM and 85 ± 1 µM, respectively. The “cell viability (%) at 0.25 mM” value in the series on mononuclear cells (MNCs) was determined as 63 ± 1%.

Regarding `Fc1ccccc1-n1c(S)nnc1Cc1ccccc1Nc1c(Cl)cccc1Cl` [5a], the values for the IC50 on soybean 15-LOX and on α-glucosidase were 14 ± 1 µM and 202 ± 1 µM, respectively. In the series on mononuclear cells (MNCs), the “cell viability (%) at 0.25 mM” value came out at 97 ± 2%.

Regarding `CCCSc1nnc(Cc2ccccc2Nc2c(Cl)cccc2Cl)n1-c1ccc(Cl)c(Cl)c1` [6d], the results for the IC50 at soybean 15-LOX and on α-glucosidase were above 250 µM and 90 ± 1 µM, respectively. The “cell viability (%) at 0.25 mM” value with mononuclear cells (MNCs) is 78 ± 2%.

Turning to `Fc1ccc(Nc2nnc(Cc3ccccc3Nc3c(Cl)cccc3Cl)s2)cc1` [8c], the IC50 on soybean 15-LOX came out at 173 ± 1 µM; on α-glucosidase it was 55 ± 1 µM. Moreover, in the series on mononuclear cells (MNCs), the “cell viability (%) at 0.25 mM” value is recorded as 76 ± 1%.

As to `Clc1cccc(Nc2nnc(Cc3ccccc3Nc3c(Cl)cccc3Cl)s2)c1Cl` [8d], the IC50 was 132 ± 1 µM at soybean 15-LOX and 46 ± 1 µM at α-glucosidase. Also, the “cell viability (%) at 0.25 mM” value with mononuclear cells (MNCs) is reported as 98 ± 2%.

Regarding `O=C(Cc1ccccc1Nc1c(Cl)cccc1Cl)NNC(=S)Nc1cccc(F)c1` [4b], the IC50 on soybean 15-LOX is above 250 µM; on α-glucosidase, 5 ± 1 µM. The “cell viability (%) at 0.25 mM” value in the series with mononuclear cells (MNCs) is listed as 82 ± 1%.

Regarding `O=c1cc(-c2ccccc2)oc2cc(O)c(O)c(O)c12` [baicalein, reference compound], the IC50 on soybean 15-LOX came out at 22 ± 1 µM.

Turning to `Sc1nnc(Cc2ccccc2Nc2c(Cl)cccc2Cl)n1-c1cccc(Cl)c1Cl` [5d], the IC50 at soybean 15-LOX was 141 ± 1 µM; at α-glucosidase, 83 ± 1 µM. Besides, in the series on mononuclear cells (MNCs), the “cell viability (%) at 0.25 mM” value is given as 96 ± 2%.

As to `Sc1nnc(Cc2ccccc2Nc2c(Cl)cccc2Cl)n1-c1ccc(Cl)c(Cl)c1` [5f], the IC50 on soybean 15-LOX is 75 ± 1 µM; on α-glucosidase, 247 ± 1 µM. For the same compound, the “cell viability (%) at 0.25 mM” value with mononuclear cells (MNCs) was determined as 97 ± 2%.

Turning to `CCCSc1nnc(Cc2ccccc2Nc2c(Cl)cccc2Cl)n1-c1ccc(F)cc1` [6c], the figures for the concentration for half-maximal inhibition (IC50) on soybean 15-LOX and on α-glucosidase were above 250 µM and 92 ± 1 µM, respectively. In addition, in the series on mononuclear cells (MNCs), the “cell viability (%) at 0.25 mM” value is given as 85 ± 1%.

With `Fc1ccc(-n2c(S)nnc2Cc2ccccc2Nc2c(Cl)cccc2Cl)cc1` [5c], the IC50 at soybean 15-LOX was above 250 µM; at α-glucosidase it was 170 ± 1 µM. In addition, the “cell viability (%) at 0.25 mM” value in the series on mononuclear cells (MNCs) was determined as 96 ± 2%.

With `Sc1nnc(Cc2ccccc2Nc2c(Cl)cccc2Cl)n1-c1ccc(Cl)cc1Cl` [5e], the results for the IC50 at soybean 15-LOX and at α-glucosidase were 93 ± 1 µM and 92 ± 1 µM, respectively. Besides, in the series with mononuclear cells (MNCs), the “cell viability (%) at 0.25 mM” value came out at 94 ± 1%.

`Fc1ccccc1Nc1nnc(Cc2ccccc2Nc2c(Cl)cccc2Cl)o1` [7a]: the IC50 at soybean 15-LOX worked out at 98 ± 1 µM; at α-glucosidase, 7 ± 1 µM. Moreover, the “cell viability (%) at 0.25 mM” value in the series with mononuclear cells (MNCs) is recorded as 76 ± 1%.

Regarding `O=C(Cc1ccccc1Nc1c(Cl)cccc1Cl)NNC(=S)Nc1ccccc1F` [4a], the figures for the IC50 on soybean 15-LOX and at α-glucosidase were 163 ± 1 µM and 53 ± 1 µM, respectively. In the series on mononuclear cells (MNCs), the “cell viability (%) at 0.25 mM” value was 79 ± 2%.

On to `Fc1ccccc1Nc1nnc(Cc2ccccc2Nc2c(Cl)cccc2Cl)s1` [8a], for which the results for the IC50 on soybean 15-LOX and at α-glucosidase were above 250 µM and 99 ± 1 µM, respectively. Moreover, in the series on mononuclear cells (MNCs), the “cell viability (%) at 0.25 mM” value came to 86 ± 2%.

Take `Clc1ccc(Nc2nnc(Cc3ccccc3Nc3c(Cl)cccc3Cl)s2)c(Cl)c1` [8e]: on soybean 15-LOX, the IC50 was above 250 µM. For the same compound, the “IC50 (µM) ± SEM α-glucosidase” value against α-glucosidase is “inactive; also recorded: non-active”. Moreover, the “cell viability (%) at 0.25 mM” value with mononuclear cells (MNCs) was found to be 75 ± 1%.

As for `CCSc1nnc(Cc2ccccc2Nc2c(Cl)cccc2Cl)n1-c1ccc(F)cc1` [6a], the IC50 on soybean 15-LOX was above 250 µM; on α-glucosidase it was 116 ± 1 µM. For the same compound, in the series on mononuclear cells (MNCs), the “cell viability (%) at 0.25 mM” value worked out at 88 ± 2%.

For the compound `Fc1cccc(-n2c(S)nnc2Cc2ccccc2Nc2c(Cl)cccc2Cl)c1` [5b], the IC50 at soybean 15-LOX came out at 61 ± 1 µM; at α-glucosidase it was 308 ± 1 µM. In addition, in the series with mononuclear cells (MNCs), the “cell viability (%) at 0.25 mM” value turned out to be 96 ± 2%.

With `Fc1cccc(Nc2nnc(Cc3ccccc3Nc3c(Cl)cccc3Cl)o2)c1` [7b], the values for the IC50 at soybean 15-LOX and at α-glucosidase were 87 ± 1 µM and 3 ± 1 µM, respectively. For the same compound, the “cell viability (%) at 0.25 mM” value with mononuclear cells (MNCs) stood at 72 ± 1%.
